Assays:
[1] = tested on: Melan-a cells, that is, mouse melanocytes; experiment: Melanin production inhibition by biarylamide derivatives in melan-a cells (Example 2-2); type: cell-based; conditions: 30 mM derivative, 10 μl per day for 3 days, final concentration 300 μM, absorbance 400 nm
Experimental: Melan-a cells, that is, mouse melanocytes, were inoculated onto a 24-well culture plate (10^5 cells), and cultured in RPMI1640 medium including fetal bovine serum (FBS) 10% and 200 nM of phorbol 12-myristate 13-acetate (TPA) for 24 hours. Then, in each well, 990 μl of RPMI1640 medium including FBS 10% and 200 nM TPA was treated with 30 mM of the inventive biarylamide derivative (10 μl per day for 3 days) (final concentration 300). The last day of treatment, the cells were washed with Phosphate buffered saline (PBS) three times, lysed with 1 ml of 1M sodium hydroxide (NaOH) solution, and measured using ELISA Leader at absorbance of 400 nm.

[2] = tested on: A375 human melanoma cell lines; experiment: A375 melanoma cell growth inhibition, BrdU cell proliferation assay (Example 5); type: cell-based; conditions: respective concentrations, 48 hours, absorbance 450 nm, FIG. 3
Experimental: A375 cells were inoculated onto a 96 well plate (3×10^3 cells), and cultured in DMEM containing fetal bovine serum (FBS) 10% for 16 hours, and then treated with A3/B5 at respective concentrations, and cultured for 48 hours. Then, by using BrdU cell proliferation assay kit (Roche, Germany), the degree of cell growth inhibition by A3/B5 was examined.

[3] = tested on: human normal melanocytes; experiment: Melanin production inhibition by A3/B5 in human normal melanocytes (Example 3); type: cell-based; conditions: A3/B5 treatment per day for 3 days, final concentration 1, 10, and 25 (unit not given), FIG. 1B
Experimental: (§1) In order to examine the effect of A3/B5 on melanin inhibition, the degree of melanin production was analyzed using melan-a cells, that is, mouse melanocytes and human normal melanocytes. Melanocytes were inoculated onto a 24-well culture plate (10^5 cells) and cultured in RPMI1640 medium including fetal bovine serum (FBS) 10% and 200 nM of phorbol 12-myristate 13-acetate (TPA) for 24 hours. Then, in each well, 990 μl of RPMI1640 medium including FBS 10% and 200 nM TPA was treated with
(§2) 100, 1000, and 2500 of A3/B5 (10 μl per day for 3 days) (final concentration 1, 10, and 25). The last day of treatment, the cells were washed with Phosphate buffered saline (PBS) three times, lysed with 1 ml of 1M sodium hydroxide (NaOH) solution, and measured using ELISA Leader at absorbance of 400 nm. Additionally, in order to determine if the inhibition of melanin production is caused by apoptosis, cell viability was examined under the same condition as described above. For this, The last day of treatment, the cells were washed with phosphate buffered saline (PBS) three times, and the cells in each well were stained with 200 μl of Crystal Violet (0.1%, EtOH 10%, PBS 89.9%) for 5 minutes, washed with phosphate buffer, lysed in 1 ml of ethanol solution, and measured at absorbance of 590 nm. Further, this experiment was performed for human normal melanocytes in the same manner.

[4] = tested on: TRP-2 (Tyrosinase related protein-2, Dopachrom tautomerase); experiment: TRP-2 expression in melan-a cells by western blotting (Example 4); type: cell-based, mouse; conditions: 50 uM
Experimental: In order to examine the effects of A3/B5 on TRP-2 expression, mouse melanocytes (melan-a) were cultured in RPMI1640 medium including fetal bovine serum (FBS) 10% and 200 nM of phorbol 12-myristate 13-acetate (TPA) for 24 hours, and treated with A3/B5 at a concentration of 50 uM (per day for 3 days). In order to determine the expression level of TRP-2 over 3 days, each test group was lysed in RIPA buffer solution containing 2 mM EDTA, 137 mM NaCl, 20 mM Tris-HCl (pH 8.0), 1 mM sodium vanadate, 10 mM NaF, 1 mM PMSF (phenylmethanesulfonyl fluoride), 1% NP-40, 10% glycerol and a protease inhibitor cocktail, and protein was separated by SDS-PAGE electrophoresis using 10% acrylamide gel. This was transferred to a nylon membrane, and TRP-2 protein was analyzed by anti TRP-2 antibody (santacuz, US) and anti-Rabbit IgG horse Radish Peroxidase (HRP) conjugation antibody (1;10000, zymed) as a secondary antibody. This was detected by Chemiluminescence reagent kit (ECL, Amersham, US) and then imaged using RAS 3000 Imaging system (FUJI film, Japan) as an image analyzer. Further, in a case where the cells were treated with A3B5 once on the first day of 3 consecutive days, the expression level of TRP-2 over 3 days was also analyzed in the same manner as described above.

[5] = tested on: Melan-a cells, that is, mouse melanocytes; experiment: Melanin production inhibition by A3/B5 in melan-a cells, with cell viability (Example 3); type: cell-based; conditions: A3/B5 treatment per day for 3 days, final concentration 1, 10, and 25 (unit not given), FIG. 1A
Experimental: as §1, §2

[6] = tested on: B16F10 mouse melanoma cell; experiment: B16F10 melanoma cell proliferation in hairless mouse model (Example 6); type: in vivo; conditions: hairless mice; 100 μl of 1 mM A3/B5 injected into the cell region for 5 days; sectioned on 6th day; FIG. 4
Experimental: In order to examine the effect of A3/B5 on the inhibition of melanoma cell proliferation, into the back of 5 hairless mice, at both sides of subcutaneous tissues, 5×10^5 B16F10 cells (B16F10 mouse melanoma cell) were injected. Then, 48 hours later, into the region injected with the cells, 100 μl of A3/B5 diluted with phosphate buffer solution to a concentration of 1 mM, and 100 μl of phosphate buffer solution as a control, were injected for 5 days, respectively. On the 6th day, the injected cell region was sectioned and its size and weight were analyzed.

With `CCc1ccc(C(=O)Nc2ccccc2C(=O)OC)cc1` [A12/B4, methyl 2-(4-ethylbenzamido)benzoate] the “Reduction rate of melanin(%)” value [1] was 9.4%.
With `COc1ccc(C(=O)Nc2cccc(C)c2)cc1` [A1/B6, 4-methoxy-N-m-tolylbenzamide] the “Reduction rate of melanin(%)” value [1] was 24.3%.
For `Cc1ccc(NC(=O)c2ccc(C)cc2)cc1` [A2/B3, 4-methyl-N-p-tolylbenzamide], the “Reduction rate of melanin(%)” value [1] was 8.6%.
With `CCCCOc1ccc(NC(=O)c2ccccc2C)cc1` [A11/B1, N-(4-Butoxyphenyl)-2-methylbenzamide] the “Reduction rate of melanin(%)” value [1] was 8.9%.
With `CCc1ccc(C(=O)Nc2cccc(C)c2)cc1` [A1/B4, 4-ethyl-N-m-tolylbenzamide] the “Reduction rate of melanin(%)” value [1] was 23.3%.
In the case of `Cc1cc(C)cc(NC(=O)c2ccc(C#N)cc2)c1` [A3/B7, 4-cyano-N-(3,5-dimethylphenyl)benzamide], the “Reduction rate of melanin(%)” value [1] is reported as 50.6%.
`COC(=O)c1ccccc1NC(=O)c1ccc(C)cc1` [A12/B3, methyl 2-(4-methylbenzamido)benzoate] was tested, and the “Reduction rate of melanin(%)” value [1] was 9.4%.
`Cc1cccc(NC(=O)c2ccc(C#N)cc2)c1` [A1/B7, 4-cyano-N-m-tolylbenzamide] was tested, and the “Reduction rate of melanin(%)” value [1] was 34.2%.
`COc1ccccc1NC(=O)c1ccccc1C` [A4/B1, N-(2-Methoxyphenyl)-2-methylbenzamide] was tested, and the “Reduction rate of melanin(%)” value [1] was 17.7%.
In the case of `COc1cccc(C(=O)Nc2cc(C)cc(C)c2)c1` [A3/B5, N-(3,5-dimethylphenyl)-3-methoxybenzamide], the “inhibition on growth of A375 melanoma cells” value [2] is reported as “inhibition on growth of A375 melanoma cells was increased”, the “reduction in melanin production content of melanocytes with respect to cell viability, as compared to a non-treated group” value [3] is reported as “about 20%” and the “expression level of TRP-2 protein as compared to non-treated group” value ([4]; treated daily for 3 days, FIG. 2A) is reported as “significant reduction”. For the same compound, the “expression level of TRP-2 protein as compared to non-treated group” value ([4]; treated only once on the first day of 3 consecutive days, FIG. 2B) was “significant reduction”, the “reduction in melanin production content of melanocytes with respect to cell viability, as compared to a non-treated group” value [5] was “about 40%” and the “size of injected B16F10 cell region versus phosphate buffer control” value [6] was “smaller”. For the same compound, the “weight of injected B16F10 cell region versus phosphate buffer control” value [6] was “smaller” and the “Reduction rate of melanin(%)” value [1] was 48.7%.
With `Cc1ccc(C(=O)Nc2cc(C)cc(C)c2)cc1` [A3/B3, N-(3,5-dimethylphenyl)-4-methylbenzamide] the “Reduction rate of melanin(%)” value [1] was 35.8%.
In the case of `COC(=O)c1ccccc1NC(=O)c1ccc(OC)cc1` [A12/B6, methyl 2-(4-methoxybenzamido)benzoate], the “Reduction rate of melanin(%)” value [1] is reported as 39.0%.
In the case of `COc1ccc(OC)c(NC(=O)c2ccccc2C)c1` [A8/B1, N-(2,5-Dimethoxyphenyl)-2-methylbenzamide], the “Reduction rate of melanin(%)” value [1] is reported as 45.5%.
For `CC(=O)c1ccc(NC(=O)c2ccc(C)cc2)cc1` [A10/B3, N-(4-acetylphenyl)-4-methylbenzamide], the “Reduction rate of melanin(%)” value [1] was 10.4%.
`CCc1ccc(C(=O)Nc2cc(C)cc(C)c2)cc1` [A3/B4, N-(3,5-dimethylphenyl)-4-ethylbenzamide] was tested, and the “Reduction rate of melanin(%)” value [1] was 36.5%.
`Cc1ccc(C(=O)Nc2cccc(C)c2)cc1` [A1/B3, 4-methyl-N-m-tolylbenzamide] was tested, and the “Reduction rate of melanin(%)” value [1] was 32.6%.
With `COC(=O)c1ccc(NC(=O)c2cccc(C)c2)cc1` [A14/B2, Methyl 4-(3-methylbenzamido)benzoate] the “Reduction rate of melanin(%)” value [1] was 30.6%.
